From publication PMC8951750, “In Vitro Anticancer and Cancer-Preventive Activity of New Triterpene Glycosides from the Far Eastern Starfish Solaster pacificus” (Marine Drugs, 2022)
Read-outs that look alike come from different tables or passages of the source.

What was measured:
[1] = test system: JB6 Cl41 cells; assay: Soft agar assay, UVB-induced neoplastic cell transformation; type: cell-based, mouse; details: compound 0.1 µM, UVB 0.3 J/cm^2 three times a week for 3 weeks, soft agar
Protocol: (§1) JB6 Cl41 cells (2.4 × 10^4) were exposed to epidermal growth factor (EGF) (1 ng/mL) or phorbol 12-myristate 13-acetate (TPA) (10 ng/mL) and treated either with DMSO (control) or the triterpene glycosides 1–9 from S. pacificus (0.1, 0.5, and 1 µM) in 1 mL of 0.3% basal medium Eagle (BME) agar containing 10% FBS, 2 mM L-glutamine, and 25 µg/mL gentamicin (agar mix). The cultures were maintained in a humidified atmosphere with 5% CO2 at 37 °C for 14 days, and the cell’s colonies were scored using a microscope, Motic AE 20 (XiangAn, Xiamen, China), and the ImageJ software bundled with 64-bit Java 1.8.0_112 (NIH, Bethesda, MD, USA). To determine the effect of investigated compounds on neoplastic cell transformation induced by ionizing radiation (X-ray or UVB), JB6 Cl41 cells (3 × 10^5/dish) were seeded in 60 mm dishes and cultured for 24 h at 37 °C in 5% CO2 incubator. Then, the cells were exposed to X-rays (X-ray system XPERT 80 (KUB Technologies, Inc, Milford, CT, USA)) at dose of 0.5 Gy or UVB (wavelengths below 312 nm) (Bio-Link UV irradiation system, Vilber, France) at dose of 0.3 J/cm^2 three times a week for 3 weeks. Irradiated JB6 Cl41 cells (2.4 × 10^4) were treated either with DMSO (control) or the triterpene glycosides 1–9 from S. pacificus (0.1, 0.5, and 1 µM) in 1 mL of agar mix. The cultures were maintained in a humidified atmosphere with 5% CO2 at 37 °C for 14 days, and the cell’s colonies were scored using a microscope, Motic AE 20 (XiangAn, Xiamen 361101, China), and the ImageJ software bundled with 64-bit Java 1.8.0_112 (NIH, Bethesda, MD, USA).

[2] = test system: SK-MEL-2 cells; assay: Soft agar assay, colony formation of cancer cells; type: cell-based, human; details: compound 0.1 µM, 14 days
Protocol: SK-MEL-2 cells (2.4 × 10^4) were treated either with DMSO (control) or the triterpene glycosides 1–9 from S. pacificus (0.1 µM) in 1 mL of agar mix. After 14 days, colonies of cancer cells were scored as described above.

[3] = test system: JB6 Cl41 cells; assay: Soft agar assay, X-ray-induced neoplastic cell transformation; type: cell-based, mouse; details: for inhibition at 0.1 µM: Mus musculus, JB6 Cl41, 504 h
Protocol: as §1

[4] = test system: human melanoma cells SK-MEL-2; assay: Cell viability, MTS assay, SK-MEL-2; type: cell-based; details: for SI (selectivity index) SK-MEL-2: IC50 JB6 Cl41 / IC50 SK-MEL-2
Protocol: (§2) MTS assay was used to measure the cell viability of tested normal and cancer cells. Cells were seeded into 96-well plates (“Jet Biofil”, Guangzhou, China) at density of 1.0 × 10^4/200 µL for 24 h at 37 °C in a 5% CO2 incubator. Then, cell monolayer was treated either with DMSO (control) or various concentrations of the triterpene glycosides 1–9 from S. pacificus (0.1, 0.5, 2.5, 12.5, 62.5 µM) in fresh appropriate culture medium for 24 h. Subsequently, the cells were incubated with 15 µL of 3-(4,5-dimethylthiazol-2-yl)-5-(3-carboxymethoxyphenyl)-2-(4-sulfophenyl)-2H-tetrazolium (MTS reagent) (“Promega”, Madison, WI, USA) for 3 h, and the absorbance of each well was measured at 490/630 nm using Power Wave XS microplate reader (“BioTek”, Wynusky, VT, USA). The concentration at which the compounds exert half of their maximal inhibitory effect on cell viability (IC50) was calculated by the AAT-Bioquest® online calculator [39]. The selectivity index (SI) was calculated as described previously using the following formula SI = IC50 of the compounds in normal cell (JB6 Cl41)/IC50 of the same compounds in human melanoma cell lines (SK-MEL-2, SK-MEL-28, or RPMI-7951).

[5] = test system: JB6 Cl41 cells; assay: Soft agar assay, TPA-induced neoplastic cell transformation; type: cell-based, mouse; details: for inhibition at 0.1 µM: Mus musculus, JB6 Cl41, 336 h
Protocol: as §1

[6] = test system: JB6 Cl41 cells; assay: Soft agar assay, EGF-induced neoplastic cell transformation; type: cell-based, mouse; details: for inhibition at 0.1 µM: Mus musculus, JB6 Cl41, 336 h
Protocol: as §1

[7] = test system: human melanoma cells RPMI-7951; assay: Cell viability, MTS assay, RPMI-7951; type: cell-based; details: for SI (selectivity index) RPMI-7951: IC50 JB6 Cl41 / IC50 RPMI-7951
Protocol: as §2

[8] = test system: Human erythrocytes (O(I)+); assay: Hemolysis assay; type: cell-based; details: 1 h, 37 °C, PBS pH 7.4
Protocol: Human erythrocytes (O(I)+) were obtained from Vladivostok blood transfusion station. Erythrocytes were centrifuged with PBS (pH 7.4) for 5 min at 4 °C by 450× g on a LABOFUGE 400R (Heraeus, Hanau, Germany) centrifuge three times. Then, the residue of erythrocytes was resuspended in ice-cold PBS (pH 7.4) to a final optical density of 2.0 at 700 nm and kept on ice. For the hemolytic assay, 180 µL of erythrocyte suspension was mixed with 20 µL of Cucumarioside A2-2 (positive control) and investigated compounds at concentrations range of 0.1, 0.5, 1, 5, 10 µM in V-bottom 96-well plates. After 1 h of incubation at 37 °C, plates were centrifuged at 900× g for 10 min on an LMC-3000 (Biosan, Riga, Latvia) laboratory centrifuge. Then, we carefully selected 100 µL of supernatant and transferred it to new flat plates, respectively. Lysis of erythrocytes was determined by measuring the concentration of hemoglobin in the supernatant with a microplate photometer Multiskan FC (Thermo Fisher Scientific, Waltham, MA, USA) at 570 nm. The effective dose causing 50% of erythrocytes hemolysis (ED50) was calculated using the computer program SigmaPlot 10.0. All experiments were made in triplicate, p < 0.01.

[9] = test system: human melanoma cells SK-MEL-28; assay: Cell viability, MTS assay, SK-MEL-28; type: cell-based; details: for SI (selectivity index) SK-MEL-28: IC50 JB6 Cl41 / IC50 SK-MEL-28
Protocol: as §2

[10] = test system: non-cancerous mouse epidermal cells JB6 Cl41; assay: Cell viability, MTS assay, JB6 Cl41; type: cell-based
Protocol: as §2

[11] = MTS assay, 24 h, read-out: IC50, cell viability SK-MEL-2

In the case of `C=C(C)C1C2CC3(C)C4=CCC5C(C)(C)C(OC6OCC(O)C(O)C6OC6OC(C)C(OC7OC(CO)C(O)C(OC8OC(CO)C(O)C(OC)C8O)C7O)C(O)C6OC6OCC(O)C(O)C6O)CCC5(C)C4CCC13C(=O)O2` [Compound 7, 3β-O-{3-O-methyl-β-D-glucopyranosyl-(1→3)-β-D-glucopyranosyl-(1→4)-[β-D-xylopyranosyl-(1→2)]-β-D-quinovopyranosyl-(1→2)-β-D-xylopyranosyl}-23,24,25,26,27-pentanor-5α-lanosta-7,20(22)-diene-18(16)-lactone], the “inhibition of UVB-induced neoplastic cell transformation (decrease of colonies number)” value [1] is reported as “not effective”, the “decrease of colonies number of SK-MEL-2 cells (colony formation)” value [2] is reported as 15% and the inhibition at 0.1 µM ([3]; read-out: inhibition of X-ray-induced cell transformation (JB6 Cl41 colonies formation), compound 0.1 µM, X-rays 0.5 Gy three times a week for 3 weeks, soft agar) is reported as < 15%. The IC50 ([4]; Homo sapiens, SK-MEL-2, 24 h, read-out: IC50, cell viability SK-MEL-2, MTS assay, 24 h) was 5.6 ± 0.1 µM, the inhibition at 0.1 µM ([5]; read-out: inhibition of TPA-induced neoplastic transformation of JB6 Cl41 cells, compound 0.1 µM, TPA 10 ng/mL, soft agar, 2 weeks, vs positive control) was 33% and the inhibition at 0.1 µM ([6]; read-out: inhibition of EGF-induced neoplastic transformation of JB6 Cl41 cells, compound 0.1 µM, EGF 1 ng/mL, soft agar, 2 weeks, vs positive control) was 20%. The IC50 ([7]; Homo sapiens, RPMI-7951, 24 h, read-out: IC50, cell viability RPMI-7951, MTS assay, 24 h) was 31.4 ± 0.1 µM, the “SI (selectivity index) RPMI-7951” value [7] was 0.25 and the “ED50, effective dose causing 50% of erythrocytes hemolysis” value [8] was 4.07 ± 0.10 µM. The IC50 ([9]; Homo sapiens, SK-MEL-28, 24 h, read-out: IC50, cell viability SK-MEL-28, MTS assay, 24 h) was 23 ± 0.07 µM, the “SI (selectivity index) SK-MEL-28” value [9] was 0.3 and the IC50 ([10]; Mus musculus, JB6 Cl41, 24 h, read-out: IC50, cell viability JB6 Cl41, MTS assay, 24 h, normal cells) was 8.7 ± 0.07 µM.
In the case of `CC(=O)OC1CC2(C)C3=CCC4C(C)(C)C(OC5OCC(O)C(O)C5OC5OC(C)C(OC6OC(CO)C(O)C(O)C6O)C(O)C5OC5OCC(O)C(O)C5O)CCC4(C)C3CCC23C(=O)OC(C)(C=CC=C(C)C)C13` [Compound 5, 3β-O-{β-D-glucopyranosyl-(1→4)-[β-D-xylopyranosyl-(1→2)]-β-D-quinovopyranosyl-(1→2)-β-D-xylopyranosyl}-16β-acetoxyholosta-7,22Z,24-triene], the “inhibition of UVB-induced neoplastic cell transformation (decrease of colonies number)” value [1] is reported as “not effective”, the “decrease of colonies number of SK-MEL-2 cells (colony formation)” value [2] is reported as 13% and the “inhibition of X-ray-induced cell transformation (JB6 Cl41 colonies formation)” value ([3]; compound 0.1 µM, X-rays 0.5 Gy three times a week for 3 weeks, soft agar) is reported as “less than 15%”. The “SI (selectivity index) SK-MEL-2” value [4] was 0.2, the IC50 [4, 11] was 37.3 ± 0.01 µM and the “inhibition of TPA-induced neoplastic transformation of JB6 Cl41 cells” value ([5]; compound 0.1 µM, TPA 10 ng/mL, soft agar, 2 weeks, vs positive control, 0.1 µM) was 17%. The “inhibition of EGF-induced neoplastic transformation of JB6 Cl41 cells” value ([6]; compound 0.1 µM, EGF 1 ng/mL, soft agar, 2 weeks, vs positive control, 0.1 µM) was 16%, the “SI (selectivity index) RPMI-7951” value [7] was 0.23 and the IC50 ([7]; MTS assay, 24 h, read-out: IC50, cell viability RPMI-7951) was 38 ± 0.3 µM. For the same compound, the “ED50, effective dose causing 50% of erythrocytes hemolysis” value [8] was 7.02 ± 0.46 µM, the “SI (selectivity index) SK-MEL-28” value [9] was 0.3 and the IC50 ([9]; MTS assay, 24 h, read-out: IC50, cell viability SK-MEL-28) was 25.3 ± 0.09 µM. It also gave an IC50 ([10]; MTS assay, 24 h, normal cells, read-out: IC50, cell viability JB6 Cl41) of 8.7 ± 0.2 µM.
In the case of `C=C(C)C1C2CC3(C)C4=CCC5C(C)(C)C(OC6OCC(O)C(O)C6OC6OC(C)C(OC7OC(COS(=O)(=O)O)C(O)C(OC8OCC(O)C(OC)C8O)C7O)C(O)C6O)CCC5(C)C4CCC13C(=O)O2` [Compound 9, 3β-O-{3-O-methyl-β-D-xylopyranosyl-(1→3)-6-O-6-sulfoxy-β-D-glucopyranosyl-(1→4)-β-D-quinovopyranosyl-(1→2)-β-D-xylopyranosyl}-23,24,25,26,27-pentanor-5α-lanosta-7,20(22)-diene-18(16)-lactone], the inhibition at 0.1 µM ([1]; Mus musculus, JB6 Cl41, light or radiation study, 504 h, read-out: inhibition of UVB-induced neoplastic cell transformation (decrease of colonies number)) is reported as 11%, the inhibition at 0.1 µM ([3]; compound 0.1 µM, X-rays 0.5 Gy three times a week for 3 weeks, soft agar, read-out: inhibition of X-ray-induced cell transformation (JB6 Cl41 colonies formation)) is reported as 28% and the IC50 ([4]; Homo sapiens, SK-MEL-2, 24 h, MTS assay, 24 h, read-out: IC50, cell viability SK-MEL-2) is reported as < 1 µM. For the same compound, the “SI (selectivity index) SK-MEL-2” value [4] was 9.9, the IC50 [4, 11] was 0.75 ± 0.03 µM and the inhibition at 0.1 µM ([5]; compound 0.1 µM, TPA 10 ng/mL, soft agar, 2 weeks, vs positive control, read-out: inhibition of TPA-induced neoplastic transformation of JB6 Cl41 cells) was 42%. For the same compound, the inhibition at 0.1 µM ([6]; compound 0.1 µM, EGF 1 ng/mL, soft agar, 2 weeks, vs positive control, read-out: inhibition of EGF-induced neoplastic transformation of JB6 Cl41 cells) was 34%, the IC50 ([7]; Homo sapiens, RPMI-7951, 24 h, MTS assay, 24 h, read-out: IC50, cell viability RPMI-7951) was 32.4 ± 0.08 µM and the “SI (selectivity index) RPMI-7951” value [7] was 0.23. For the same compound, the “ED50, effective dose causing 50% of erythrocytes hemolysis” value [8] was 2.85 ± 0.14 µM, the IC50 ([9]; Homo sapiens, SK-MEL-28, 24 h, MTS assay, 24 h, read-out: IC50, cell viability SK-MEL-28) was 23.3 ± 0.6 µM and the “SI (selectivity index) SK-MEL-28” value [9] was 0.32. It also gave an IC50 ([10]; Mus musculus, JB6 Cl41, 24 h, MTS assay, 24 h, normal cells, read-out: IC50, cell viability JB6 Cl41) of 7.4 ± 0.8 µM.
In the case of `C=C(C)CCCC1(C)OC(=O)C23CCC4C(=CCC5C(C)(C)C(OC6OCC(OS(=O)(=O)[O-])C(O)C6OC6OC(C)C(OC7OC(CO)C(O)C(OC8OC(CO)C(O)C(OC)C8O)C7O)C(O)C6OC6OCC(O)C(O)C6O)CCC45C)C2(C)CC(=O)C13.[Na+]` (stereo not drawn) [Cucumarioside A2-2, reference compound], the “ED50, effective dose causing 50% of erythrocytes hemolysis” value [8] is reported as 0.95 ± 0.04 µM.
